{
  "source": "ChEMBL document CHEMBL1671799",
  "about": "“Modelling topoisomerase I inhibition by minor groove binders” (Bioorg Med Chem, 2011)",
  "note": "Active and inactive are the calls of the source. The rule behind the calls is not given here.",
  "data": [
    {"organism": "Bos taurus", "assay": "Inhibition of calf thymus topoisomerase 1 relative to Hoechst 33342", "values": [
      {"compound": "COc1ccc(-c2nc3cc(C#N)ccc3[nH]2)cc1", "Ratio": "> 300000"},
      {"compound": "COc1ccc(-c2cc3ccc([N+](=O)[O-])cc3[nH]2)cc1", "inhibition": "inactive"},
      {"compound": "c1ccc2cc(-c3ccc4[nH]c(-c5ccc6nc[nH]c6c5)nc4c3)ccc2c1", "Ratio": 2},
      {"compound": "COc1ccc(-c2cc3cc([N+](=O)[O-])ccc3[nH]2)cc1", "inhibition": "inactive"},
      {"compound": "Clc1nc2ccc(-c3nc4ccc(-c5nc6cc(Br)c(Br)cc6[nH]5)cc4[nH]3)cc2[nH]1", "Ratio": 1},
      {"compound": "Brc1cc2nc(-c3ccc4nc(-c5ccc6nc[nH]c6c5)[nH]c4c3)[nH]c2cc1Br", "Ratio": 1},
      {"compound": "Oc1nc2ccc(-c3nc4ccc(-c5nc6ccc(Br)cc6[nH]5)cc4[nH]3)cc2[nH]1", "Ratio": 1},
      {"compound": "COc1ccc(-c2nc3cc([N+](=O)[O-])ccc3[nH]2)cc1", "Ratio": 300},
      {"compound": "Cc1cccc(-c2nc3cc(-c4nc5cc(C(N)=O)ccc5[nH]4)ccc3[nH]2)c1", "Ratio": 100},
      {"compound": "c1ccc(-c2ccc3[nH]c(-c4ccc5nc(-c6ccccc6)[nH]c5c4)nc3c2)cc1", "Ratio": 40},
      {"compound": "NC(=O)c1ccc2[nH]c(-c3ccc4[nH]c(-c5cccc6ccccc56)nc4c3)nc2c1", "Ratio": 20},
      {"compound": "c1ccc2c(-c3ccc4[nH]c(-c5ccc6[nH]c(-c7ccc8[nH]cnc8c7)nc6c5)nc4c3)cccc2c1", "Ratio": 10},
      {"compound": "COc1ccc(-c2nc3cc(-c4nc5cc(CN(C)C)ccc5[nH]4)ccc3[nH]2)cc1", "Ratio": 2.5},
      {"compound": "CCCc1nc2ccc(-c3nc4cc(-c5ccccc5)ccc4[nH]3)cc2[nH]1", "Ratio": 1},
      {"compound": "COc1ccc(-c2nc3cc([N+](=O)[O-])ccc3o2)cc1", "inhibition": "inactive"},
      {"compound": "NC(=O)c1ccc2[nH]c(-c3ccc4[nH]c(-c5ccc6ccccc6c5)nc4c3)nc2c1", "Ratio": 100},
      {"compound": "c1ccc2c(-c3ccc4[nH]c(-c5ccc6nc[nH]c6c5)nc4c3)cccc2c1", "Ratio": 4},
      {"compound": "COc1ccc(-c2nc3cc(C(=O)O)ccc3[nH]2)cc1", "Ratio": "> 300000"},
      {"compound": "c1ccc(-c2ccc3[nH]c(-c4ccc5[nH]c(-c6ccc7[nH]cnc7c6)nc5c4)nc3c2)nc1", "Ratio": 3.3},
      {"compound": "c1ccc(-c2ccc3[nH]c(-c4ccc5[nH]c(-c6ccc7nccnc7c6)nc5c4)nc3c2)cc1", "Ratio": "> 100"},
      {"compound": "c1ccc2cc(-c3ccc4[nH]c(-c5ccc6[nH]c(-c7ccc8[nH]cnc8c7)nc6c5)nc4c3)ccc2c1", "Ratio": 10},
      {"compound": "c1cc(-c2ccc3[nH]c(-c4ccc5[nH]c(-c6ccc7[nH]cnc7c6)nc5c4)nc3c2)ccn1", "Ratio": 2},
      {"compound": "COc1ccc(-c2nc3cc(C=O)ccc3[nH]2)cc1", "Ratio": 300},
      {"compound": "COc1ccc(-c2nc3cc(C(N)=O)ccc3[nH]2)cc1", "Ratio": 3000},
      {"compound": "COc1ccc(-c2nc3cc(-c4nc5cc([N+](=O)[O-])ccc5[nH]4)ccc3[nH]2)cc1", "Ratio": 1000},
      {"compound": "COc1ccc(-c2nc3cc([N+](=O)[O-])ccc3s2)cc1", "inhibition": "inactive"},
      {"compound": "Cc1ccc(-c2nc3cc(-c4nc5cc(C#N)ccc5[nH]4)ccc3[nH]2)cc1", "Ratio": 1},
      {"compound": "c1ccc(-c2cccc3[nH]c(-c4ccc5nc[nH]c5c4)nc23)cc1", "Ratio": 10},
      {"compound": "Cc1nc2ccc(-c3nc4cc(-c5ccccc5)ccc4[nH]3)cc2[nH]1", "Ratio": 4},
      {"compound": "COc1ccc(-c2nc3cc(Br)ccc3[nH]2)cc1", "Ratio": "> 300000"},
      {"compound": "Cc1cccc(-c2nc3cc(-c4nc5cc(N6CCN(C)CC6)ccc5[nH]4)ccc3[nH]2)c1", "Ratio": 1},
      {"compound": "COc1ccc(-c2nc3ccc([N+](=O)[O-])cc3s2)cc1", "inhibition": "inactive"},
      {"compound": "COc1ccc(-c2nc3cc(-c4nc5cc(N6CCN(C)CC6)ccc5[nH]4)ccc3[nH]2)cc1", "Ratio": 1},
      {"compound": "COc1ccc(-c2nc3cc(CN)ccc3[nH]2)cc1", "Ratio": "> 300000"},
      {"compound": "COc1ccc(-c2nc3cc(-c4nc5cc(C#N)ccc5[nH]4)ccc3[nH]2)cc1", "Ratio": 3.3},
      {"compound": "O=[N+]([O-])c1ccc2[nH]c(-c3ccc4nc(-c5ccc6nc[nH]c6c5)[nH]c4c3)nc2c1", "Ratio": 0.5},
      {"compound": "Brc1ccc2[nH]c(-c3ccc4nc(-c5ccc6nc[nH]c6c5)[nH]c4c3)nc2c1", "Ratio": 1},
      {"compound": "N#Cc1ccc2[nH]c(-c3ccc4[nH]c(-c5ccc6[nH]cnc6c5)nc4c3)nc2c1", "Ratio": 0.1},
      {"compound": "COc1ccc(-c2nc3cc(CO)ccc3[nH]2)cc1", "Ratio": 30000},
      {"compound": "Nc1ccc2[nH]c(-c3ccc4nc(-c5ccc6nc[nH]c6c5)[nH]c4c3)nc2c1", "Ratio": 1},
      {"compound": "COc1ccc(-c2nc3cc(-c4nc5cc(CCCN(C)C)ccc5[nH]4)ccc3[nH]2)cc1", "Ratio": 2},
      {"compound": "CCc1nc2ccc(-c3nc4cc(-c5ccccc5)ccc4[nH]3)cc2[nH]1", "Ratio": 2},
      {"compound": "CCCc1nc2ccc(-c3nc4ccc(-c5nc6ccc(Br)cc6[nH]5)cc4[nH]3)cc2[nH]1", "Ratio": 1},
      {"compound": "Cc1ccc(-c2nc3cc(-c4nc5cc(C(N)=O)ccc5[nH]4)ccc3[nH]2)cc1", "Ratio": 10},
      {"compound": "NC(=O)c1ccc2[nH]c(-c3ccc4[nH]c(-c5ccccc5)nc4c3)nc2c1", "Ratio": 10},
      {"compound": "Oc1ccc2[nH]c(-c3ccc4nc(-c5ccc6nc[nH]c6c5)[nH]c4c3)nc2c1", "Ratio": 0.5},
      {"compound": "Cc1cccc(-c2nc3cc(-c4nc5cc(C#N)ccc5[nH]4)ccc3[nH]2)c1", "Ratio": 100},
      {"compound": "CC(C)c1nc2ccc(-c3nc4cc(-c5ccccc5)ccc4[nH]3)cc2[nH]1", "Ratio": 1},
      {"compound": "CN1CCN(c2ccc3[nH]c(-c4ccc5[nH]c(-c6ccccc6)nc5c4)nc3c2)CC1", "Ratio": 1},
      {"compound": "c1ccc(-c2ccc3[nH]c(-c4ccc5[nH]c(-c6ccc7[nH]ccc7c6)nc5c4)nc3c2)cc1", "Ratio": 50},
      {"compound": "COc1ccc(-c2nc3c([N+](=O)[O-])cccc3[nH]2)cc1", "Ratio": "> 300000"},
      {"compound": "COc1ccc(-c2nc3cc(-c4nc5cc(N)ccc5[nH]4)ccc3[nH]2)cc1", "Ratio": 100},
      {"compound": "c1ccc(-c2ccc3[nH]c(-c4ccc5[nH]c(-c6ccc7cc[nH]c7c6)nc5c4)nc3c2)cc1", "Ratio": 5},
      {"compound": "COc1ccc(-c2nc3cc(-c4nc5cc(OC6CCN(C)CC6)ccc5[nH]4)ccc3[nH]2)cc1", "Ratio": 2},
      {"compound": "c1nc2ccc(-c3nc4ccc(-c5nc6cc(N7CCCCC7)ccc6[nH]5)cc4[nH]3)cc2[nH]1", "Ratio": 0.5},
      {"compound": "c1ccc2[nH]c(-c3ccc4[nH]c(-c5ccc6[nH]cnc6c5)nc4c3)nc2c1", "Ratio": 1.1},
      {"compound": "c1ccc(-c2ccc3[nH]c(-c4ccc5[nH]c(-c6ccc7[nH]nnc7c6)nc5c4)nc3c2)cc1", "Ratio": 1},
      {"compound": "Clc1ccc2[nH]c(-c3ccc4nc(-c5ccc6nc[nH]c6c5)[nH]c4c3)nc2c1", "Ratio": 1},
      {"compound": "Cc1ccc(-c2nc3cc(-c4nc5cc(N6CCN(C)CC6)ccc5[nH]4)ccc3[nH]2)cc1", "Ratio": 1},
      {"compound": "N#Cc1ccc2[nH]c(-c3ccc4[nH]c(-c5cccc6ccccc56)nc4c3)nc2c1", "Ratio": 10},
      {"compound": "c1ccc2c(c1)ccc1[nH]c(-c3ccc4nc[nH]c4c3)nc12", "Ratio": 2},
      {"compound": "COc1ccc(-c2nc3cc(-c4nc5cc(N(C)C)ccc5[nH]4)ccc3[nH]2)cc1", "Ratio": 1000},
      {"compound": "COc1ccc2[nH]c(-c3ccc4nc(-c5ccc6nc[nH]c6c5)[nH]c4c3)nc2c1", "Ratio": 0.05},
      {"compound": "N#Cc1ccc2[nH]c(-c3ccc4[nH]c(-c5ccc6ccccc6c5)nc4c3)nc2c1", "Ratio": 10},
      {"compound": "COc1cc2nc(-c3ccc4nc(-c5ccc6nc[nH]c6c5)[nH]c4c3)[nH]c2cc1-c1ccccc1", "Ratio": 0.5},
      {"compound": "COc1ccc(-c2ccc3[nH]c(-c4ccc5nc[nH]c5c4)nc3c2)cc1", "Ratio": 1},
      {"compound": "Fc1ccc2[nH]c(-c3ccc4nc(-c5ccc6nc[nH]c6c5)[nH]c4c3)nc2c1", "Ratio": 0.05},
      {"compound": "COc1cc2nc(-c3ccc4nc(-c5ccc6nc[nH]c6c5)[nH]c4c3)[nH]c2cc1Br", "Ratio": 2},
      {"compound": "c1ccc2cc3[nH]c(-c4ccc5nc[nH]c5c4)nc3cc2c1", "Ratio": 2000},
      {"compound": "FC(F)(F)c1nc2ccc(-c3nc4ccc(-c5nc6cc(Br)c(Br)cc6[nH]5)cc4[nH]3)cc2[nH]1", "Ratio": 1},
      {"compound": "c1ccc(-c2ccc3[nH]c(-c4ccc5nc[nH]c5c4)nc3c2)cc1", "Ratio": 2},
      {"compound": "Oc1nc2ccc(-c3nc4cc(-c5nc6cc(-c7ccccc7)ccc6[nH]5)ccc4[nH]3)cc2nc1O", "Ratio": 1},
      {"compound": "Cc1ccccc1-c1nc2cc(-c3nc4cc(N5CCN(C)CC5)ccc4[nH]3)ccc2[nH]1", "Ratio": 10},
      {"compound": "CCCc1ccc2[nH]c(-c3ccc4[nH]c(-c5ccc6[nH]cnc6c5)nc4c3)nc2c1", "Ratio": 0.5},
      {"compound": "CN1CCN(c2ccc3[nH]c(-c4ccc5[nH]c(-c6ccc7ccccc7c6)nc5c4)nc3c2)CC1", "Ratio": 10},
      {"compound": "c1cncc(-c2ccc3[nH]c(-c4ccc5[nH]c(-c6ccc7[nH]cnc7c6)nc5c4)nc3c2)c1", "Ratio": 2},
      {"compound": "Clc1ccc(-c2ccc3[nH]c(-c4ccc5nc[nH]c5c4)nc3c2)cc1", "Ratio": 4},
      {"compound": "COc1ccc(-c2nc3cc(-c4nc5cc(CCN(C)C)ccc5[nH]4)ccc3[nH]2)cc1", "Ratio": 5},
      {"compound": "CN1CCN(c2ccc3[nH]c(-c4ccc5[nH]c(-c6cccc7ccccc67)nc5c4)nc3c2)CC1", "Ratio": 20},
      {"compound": "N#Cc1ccc2[nH]c(-c3ccc4[nH]c(-c5ccccc5)nc4c3)nc2c1", "Ratio": "> 100"},
      {"compound": "Cc1ccccc1-c1nc2cc(-c3nc4cc(C(N)=O)ccc4[nH]3)ccc2[nH]1", "Ratio": 100},
      {"compound": "FC(F)(F)c1nc2ccc(-c3nc4ccc(-c5nc6ccc(-c7ccc(Cl)cc7)cc6[nH]5)cc4[nH]3)cc2[nH]1", "Ratio": 1},
      {"compound": "COc1ccc(-c2nc3ccccc3[nH]2)cc1", "Ratio": "> 300000"},
      {"compound": "COc1ccc(-c2nc3ccc(-c4nc5cc(-c6ccccc6)ccc5[nH]4)cc3[nH]2)cc1", "Ratio": 40},
      {"compound": "Cc1ccccc1-c1nc2cc(-c3nc4cc(C#N)ccc4[nH]3)ccc2[nH]1", "Ratio": "> 500"},
      {"compound": "N#Cc1ccc2[nH]c(-c3ccc4[nH]cnc4c3)nc2c1", "Ratio": 1000},
      {"compound": "COc1ccc(-c2nc3cc(-c4nc5cc(-c6nc7cc(C#N)ccc7[nH]6)ccc5[nH]4)ccc3[nH]2)cc1", "Ratio": 1000},
      {"compound": "c1ccc(-c2ccc3[nH]c(-c4ccc5[nH]c(-c6ccc7[nH]cnc7c6)nc5c4)nc3c2)cc1", "Ratio": 1},
      {"compound": "c1ccc(-c2cc3nc(-c4ccc5nc(-c6ccc7nc[nH]c7c6)[nH]c5c4)[nH]c3cc2-c2ccccc2)cc1", "Ratio": 1},
      {"compound": "COc1ccc(-c2nc3ccc([N+](=O)[O-])cc3o2)cc1", "inhibition": "inactive"}
    ]}
  ]
}
